Test results published in ChEMBL document CHEMBL4118085, “Plasma Kallikrein Inhibitors for the Treatment of Retinal Vascular Permeability Associated with Diabetic Retinopathy and Diabetic Macular Edema” (ACS Med Chem Lett, 2017).

Biological target: Plasma kallikrein (Homo sapiens, UniProt P03952)
Assay: Inhibition of human plasma kallikrein using H-Pro-Phe-Arg-AMC as substrate after 1 hr by fluorescence assay

Sequence of Plasma kallikrein (P03952 20-390 limits assumed): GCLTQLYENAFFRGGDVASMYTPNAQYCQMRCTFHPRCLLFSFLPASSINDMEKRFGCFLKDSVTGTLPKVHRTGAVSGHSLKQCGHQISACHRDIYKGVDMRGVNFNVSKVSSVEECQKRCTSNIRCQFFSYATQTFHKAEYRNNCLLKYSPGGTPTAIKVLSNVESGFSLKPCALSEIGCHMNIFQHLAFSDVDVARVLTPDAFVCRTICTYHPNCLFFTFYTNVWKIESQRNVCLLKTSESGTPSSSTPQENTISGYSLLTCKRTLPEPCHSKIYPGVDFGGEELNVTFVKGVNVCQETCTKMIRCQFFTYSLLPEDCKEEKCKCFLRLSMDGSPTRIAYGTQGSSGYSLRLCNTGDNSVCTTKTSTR
Sequence of Plasma kallikrein (P03952 391-638 limits assumed): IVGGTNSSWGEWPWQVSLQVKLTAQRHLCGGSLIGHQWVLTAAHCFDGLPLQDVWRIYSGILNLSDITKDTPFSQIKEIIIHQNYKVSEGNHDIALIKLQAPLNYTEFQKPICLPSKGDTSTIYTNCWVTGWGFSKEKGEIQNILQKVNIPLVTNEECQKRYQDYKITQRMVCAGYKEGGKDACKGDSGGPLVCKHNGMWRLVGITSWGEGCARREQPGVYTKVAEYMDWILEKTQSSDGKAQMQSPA

Compound | IC50 [nM]
C[C@H]1CCN(c2ccc(Cn3cc(C(=O)N[C@@H]4CCc5nc(N)ccc54)cn3)cn2)C1 | 19
Cc1cc(N)nc2c1C(NC(=O)c1cnn(Cc3ccc(Cn4ccccc4=O)cc3)c1)CC2 (stereo not given) | 4
Cc1cnn(Cc2ccc(Cn3nc(C(=O)N[C@@H]4CCc5c4ccnc5N)cc3C(F)(F)F)cc2)c1 | 1
Cc1ccc2cc(Cn3cc(C(=O)N[C@H]4CCc5nc(N)ccc54)nn3)ccc2n1 | 1900
Nc1ccc2c(n1)CCC2NC(=O)c1cnn(Cc2ccc(Cn3ccccc3=O)cc2)c1 (stereo not given) | 9
